{
  "source": "patent US8530435B2",
  "about": "“Brassinosteroids in treating prostatic hyperplasia and androgenic alopecia” (Grasses of Eden Ltd., priority 2008, dated 2013)",
  "key": {"[1]": {"conditions": "cited from earlier work"}, "[2]": {"test_system": "fish", "conditions": "in vivo; cited from earlier work"}, "[3]": {"test_system": "mice CBAB1/6", "conditions": "cited from earlier work"}, "[4]": {"test_system": "Tetrahymena pyriformis", "conditions": "over seven generations; cited from earlier work"}, "[5]": {"test_system": "human genital skin 5αR", "assay": "5α-reductase activity: reduction of testosterone to DHT in human foreskin tissue enzyme mixture, HPLC", "format": "biochemical", "conditions": "for Activity (% of control) / DHT/testosterone (final): initial testosterone 0.34 mM; for DHT/testosterone (final): control 0.1562", "protocol": "5α-reductase activity of soluble enzyme was measured by the reduction of testosterone at 37° C. during 40 min in a 3-ml enzyme mixture of human foreskin tissue or Bos taurus (Bovine) prostatic tissues, containing NADPH, with and without the test compound in parallel with analytical Ventranal standards for Testosterone and DHT. Tissue preparation and enzyme incubations were performed in accordance with Moore et al. (see below) with modifications. All steps were carried out at 4° C. Prostate or foreskin tissue was dissected and homogenized in ice-cold homogenization phosphate buffer at pH 8.0. The homogenate was centrifuged and the resulting cell free supernatant was stored in aliquots at −80° C. Inhibition of the steroid 5α-reductase was measured by incubating the enzyme and testosterone in the presence of a plant extract or a natural compound. […] The ratio of the peak areas gave quantitative measure of the inhibition [Neeman I. et al.: Urol.\nThe activity of 5α-reductase (EC: 1.3.99.5) was checked in human foreskin tissue and in bovine prostatic tissues. Pure compound and plant extracts were tested for their 5α-reductase inhibition activity, in various experiments."}, "[6]": {"test_system": "Salmonella typhimurium TA 1534, TA 1537, TA 1950, TA 98, TA 100", "conditions": "with or without metabolic activation; cited from earlier work"}, "[7]": {"test_system": "mucous membranes of rabbits' eyes", "conditions": "concentrations of 0.2%; cited from earlier work"}, "[8]": {"test_system": "mice", "conditions": "orally, mice (female); cited from earlier work"}, "[9]": {"test_system": "rats", "conditions": "cited from earlier work"}, "[10]": {"test_system": "skin", "conditions": "in vivo; cited from earlier work"}},
  "data": [
    {"compound": "CC(C)[C@@H](C)[C@@H](O)[C@H](O)[C@@H](C)[C@H]1CC[C@H]2[C@@H]3COC(=O)[C@H]4C[C@H](O)[C@H](O)C[C@]4(C)[C@H]3CC[C@]12C", "note": "[Epibrassinolide-24]", "values": [
      {"measurement": "toxicity and cumulative effect", "setting": "[1]; acute, subacute, and chronic experiments", "result": "low toxicity and very little cumulative effect"},
      {"measurement": "adaptogenic effect (increasing adaptive ability of the population)", "setting": "[1]; prolonged experiments", "result": "pronounced adaptogenic effect"},
      {"measurement": "toxicity", "setting": "[1]; prolonged experiments", "result": "no toxicity"},
      {"measurement": "fish toxicity", "setting": "[2]", "result": "no negative effects"},
      {"measurement": "stimulative and toxico-protective properties in fish", "setting": "[2]", "result": "pronounced stimulative and toxico-protective properties"},
      {"measurement": "spontaneous mutations in micronuclear or chromosome abberation tests", "setting": "[3]", "result": "neither epibrassinolide-24 nor the liquid formulation caused spontaneous mutations"},
      {"measurement": "genetic safety / mutagenic activity", "setting": "[4]", "result": "absence of mutagenic activity"},
      {"measurement": "human skin reductase activity inhibited", "setting": "[5]; as in Table 1 (10^−7M)", "result": 74, "unit": "%"},
      {"measurement": "Activity (% of control)", "setting": "[5]; inhibitor 10^−7M", "result": "25.9 % of control"},
      {"measurement": "DHT/testosterone (final)", "setting": "[5]; inhibitor 10^−7M", "result": 0.0404},
      {"measurement": "Ames test for mutagenic activity", "setting": "[6]", "result": "negative"},
      {"measurement": "irritation of mucous membranes of eyes", "setting": "[7]", "result": "did not irritate"},
      {"measurement": "LD50", "setting": "[8]", "result": "more than 1000 mg/kg"},
      {"measurement": "LD50", "setting": "[9]; orally and dermally, rats (male/female)", "result": "more than 2000 mg/kg"},
      {"measurement": "Dermal toxicity", "setting": "[9]; rat, in vivo", "result": "more than 2000 mg/kg"},
      {"measurement": "skin irritation", "setting": "[10]", "result": "did not irritate the skin"}
    ]},
    {"compound": "CC(C)(C)NC(=O)[C@H]1CC[C@H]2[C@@H]3CC[C@H]4NC(=O)C=C[C@]4(C)[C@H]3CC[C@]12C", "note": "[Finasteride, reference compound]", "values": [
      {"measurement": "Activity (% of control)", "setting": "[5]; inhibitor 10^−6M", "result": "32.7 % of control"},
      {"measurement": "DHT/testosterone (final)", "setting": "[5]; inhibitor 10^−6M", "result": 0.0607}
    ]}
  ]
}
